Experiments:
[1] = test system: bedstraw; assay: Test B pre/postemergence bedstraw; assay type: in vivo, Galium aparine; details: scale of 0 to 10 where 0 is no effect and 10 is complete control; for Plant response rating, Bedstraw: Preemergence
In short: (§1)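 Response is a visual 0-to-10 score relative to untreated plants, where 0 means no effect and 10 means complete control, taken twelve to sixteen days after application. Treatments went onto soil at planting and onto foliage of 1- to 4-leaf plants, using a surfactant-containing non-phytotoxic solvent.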

[2] = test system: surinam grass; assay: Test B pre/postemergence surinam grass; assay type: in vivo, Brachiaria decumbens
In short: as §1

[3] = test system: giant foxtail; assay: Test B pre/postemergence giant foxtail; assay type: in vivo, Setaria faberii
In short: as §1

[4] = test system: crabgrass; assay: Test B pre/postemergence crabgrass; assay type: in vivo, Digitaria sanguinalis
In short: as §1

[5] = test system: smallflower flatsedge; assay: Test B flood test smallflower flatsedge; assay type: in vivo, Cyperus difformis
In short: (§2)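 Plants were grown to the 2-leaf stage before treatment with test chemical, then held in a greenhouse for twelve to sixteen days. Injury was visually rated against untreated controls on a 0–10 scale, where 0 is no effect and 10 is complete control.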

[6] = test system: blackgrass; assay: Test B pre/postemergence blackgrass; assay type: in vivo, Alopecurus myosuroides
In short: as §1

[7] = test system: wild oat; assay: Test B pre/postemergence wild oat; assay type: in vivo, Avena fatua; details: for Plant response rating, Wild oats: scale of 0 to 10 where 0 is no effect and 10 is complete control
In short: as §1

[8] = test system: soybean; assay: Test B pre/postemergence soybean; assay type: in vivo, Glycine max; details: for Plant response rating, Soybean: scale of 0 to 10 where 0 is no effect and 10 is complete control
In short: as §1

[9] = test system: corn; assay: Test B pre/postemergence corn; assay type: in vivo, Zea mays
In short: as §1

[10] = test system: duck salad; assay: Test B flood test duck salad; assay type: in vivo, Heteranthera limosa
In short: as §2

[11] = test system: wheat; assay: Test B pre/postemergence wheat; assay type: in vivo, Triticum aestivum; details: for Plant response rating, Wheat: scale of 0 to 10 where 0 is no effect and 10 is complete control
In short: as §1

[12] = test system: velvetleaf; assay: Test B pre/postemergence velvetleaf; assay type: in vivo, Abutilon theophrasti; details: for Plant response rating, Velvetleaf: scale of 0 to 10 where 0 is no effect and 10 is complete control
In short: as §1

[13] = test system: morningglory; assay: Test B pre/postemergence morningglory; assay type: in vivo, Ipomoea hederacea; details: for Plant response rating, Morningglory: scale of 0 to 10 where 0 is no effect and 10 is complete control
In short: as §1

[14] = test system: purple nutsedge; assay: Test B pre/postemergence purple nutsedge; assay type: in vivo, Cyperus rotundus; details: for Plant response rating, Nutsedge: scale of 0 to 10 where 0 is no effect and 10 is complete control
In short: as §1

[15] = test system: rape; assay: Test B pre/postemergence rape; assay type: in vivo, Brassica napus; details: for Plant response rating, Rape: scale of 0 to 10 where 0 is no effect and 10 is complete control
In short: as §1

[16] = test system: rice; assay: Test B flood test rice; assay type: in vivo, Oryza sativa
In short: as §2

[17] = Postemergence, Rate 500 g/ha, scale of 0 to 10 where 0 is no effect and 10 is complete control
[18] = Preemergence, Rate 62 g/ha, scale of 0 to 10 where 0 is no effect and 10 is complete control
[19] = Preemergence, Rate 125 g/ha, scale of 0 to 10 where 0 is no effect and 10 is complete control
[20] = Preemergence, Rate 250 g/ha, scale 0 to 10, 0 is no effect, 10 is complete control
[21] = Preemergence, Rate 500 g/ha, scale 0 to 10, 0 is no effect, 10 is complete control
[22] = Rate 62 g/ha, Postemergence, scale 0 to 10 (0 no effect, 10 complete control)
[23] = Rate 125 g/ha, Postemergence, scale 0 to 10, 0 is no effect, 10 is complete control
[24] = Postemergence, Rate 250 g/ha, scale 0 to 10
[25] = Rate 62 g/ha, flood test species, Pre-emergence, visual evaluation after twelve to sixteen days
[26] = Rate 125 g/ha, under heading Pre-emergence, flood test species, visual evaluation after twelve to sixteen days
[27] = Rate 250 g/ha, Pre-emergence (flood test species), scale 0 to 10, 0 is no effect, 10 is complete control
[28] = Rate 500 g/ha, Pre-emergence, flood test species, scale 0 to 10 (0 no effect, 10 complete control)

SMILES: CC[Si](C)(C)Cn1c(=O)on(C(=O)N(c2ccc(Cl)cc2)C(C)C)c1=O [Compound 460]
- Bedstraw plant response rating ([1]; Postemergence, Rate 500 g/ha): 8
- Plant response rating, Bedstraw ([1]; Rate 62 g/ha): 0
- Plant response rating, Bedstraw ([1]; Rate 125 g/ha): 0
- B. signalgrass plant response rating ([2]; Postemergence, Rate 250 g/ha, scale 0 to 10, 0 no effect, 10 complete control): 0
- B. signalgrass plant response rating [2, 17]: 2
- Plant response rating, B. signalgrass [2, 18]: 0
- Plant response rating, B. signalgrass [2, 19]: 0
- B. signalgrass plant response rating [2, 20]: 0
- B. signalgrass plant response rating [2, 21]: 0
- B. signalgrass plant response rating [2, 22]: 0
- B. signalgrass plant response rating [2, 23]: 0
- Giant foxtail plant response rating [3, 24]: 0
- Giant foxtail plant response rating [3, 17]: 1
- Plant response rating, Giant foxtail [3, 18]: 0
- Plant response rating, Giant foxtail [3, 19]: 6
- Giant foxtail plant response rating [3, 20]: 8
- Giant foxtail plant response rating [3, 21]: 9
- Giant foxtail plant response rating [3, 22]: 0
- Giant foxtail plant response rating [3, 23]: 0
- Crabgrass plant response rating [4, 24]: 9
- Crabgrass plant response rating [4, 17]: 9
- Plant response rating, Crabgrass [4, 18]: 0
- Plant response rating, Crabgrass [4, 19]: 1
- Crabgrass plant response rating [4, 20]: 6
- Crabgrass plant response rating [4, 21]: 9
- Crabgrass plant response rating [4, 22]: 3
- Crabgrass plant response rating [4, 23]: 6
- Plant response rating, S. Flatsedge (0 to 10 scale, 0 is no effect, 10 is complete control) [5, 25]: 0
- S. Flatsedge plant response rating (0 to 10 scale, 0 is no effect, 10 is complete control) [5, 26]: 0
- S. Flatsedge plant response rating [5, 27]: 0
- S. Flatsedge plant response rating [5, 28]: 0
- Blackgrass plant response rating [6, 17]: 8
- Plant response rating, Blackgrass [6, 18]: 0
- Plant response rating, Blackgrass [6, 19]: 0
- Blackgrass plant response rating [6, 20]: 0
- Blackgrass plant response rating [6, 21]: 3
- Blackgrass plant response rating [6, 22]: 2
- Wild oats plant response rating [7, 24]: 0
- Plant response rating, Wild oats ([7]; Preemergence, Rate 62 g/ha): 0
- Plant response rating, Wild oats ([7]; Preemergence, Rate 125 g/ha): 0
- Wild oats plant response rating [7, 20]: 0
- Wild oats plant response rating [7, 21]: 0
- Wild oats plant response rating [7, 22]: 0
- Wild oats plant response rating [7, 23]: 0
- Soybean plant response rating [8, 24]: 4
- Plant response rating, Soybean ([8]; Preemergence, Rate 62 g/ha): 0
- Plant response rating, Soybean ([8]; Preemergence, Rate 125 g/ha): 0
- Soybean plant response rating [8, 20]: 0
- Soybean plant response rating [8, 21]: 0
- Soybean plant response rating [8, 22]: 3
- Soybean plant response rating [8, 23]: 3
- Corn plant response rating [9, 24]: 0
- Corn plant response rating [9, 17]: 0
- Plant response rating, Corn [9, 18]: 0
- Plant response rating, Corn [9, 19]: 0
- Corn plant response rating [9, 20]: 0
- Corn plant response rating [9, 21]: 2
- Corn plant response rating [9, 22]: 0
- Corn plant response rating [9, 23]: 0
- Plant response rating, Ducksalad (0 to 10 scale, 0 is no effect, 10 is complete control) [10, 25]: 0
- Ducksalad plant response rating (0 to 10 scale, 0 is no effect, 10 is complete control) [10, 26]: 0
- Ducksalad plant response rating [10, 27]: 0
- Ducksalad plant response rating [10, 28]: 0
- Wheat plant response rating [11, 24]: 0
- Plant response rating, Wheat ([11]; Preemergence, Rate 62 g/ha): 0
- Plant response rating, Wheat ([11]; Preemergence, Rate 125 g/ha): 0
- Wheat plant response rating [11, 20]: 0
- Wheat plant response rating [11, 21]: 0
- Wheat plant response rating [11, 22]: 0
- Wheat plant response rating [11, 23]: 0
- Velvetleaf plant response rating [12, 24]: 0
- Plant response rating, Velvetleaf ([12]; Preemergence, Rate 62 g/ha): 0
- Plant response rating, Velvetleaf ([12]; Preemergence, Rate 125 g/ha): 0
- Velvetleaf plant response rating [12, 20]: 0
- Velvetleaf plant response rating [12, 21]: 0
- Velvetleaf plant response rating [12, 22]: 0
- Velvetleaf plant response rating [12, 23]: 0
- Morningglory plant response rating [13, 24]: 7
- Plant response rating, Morningglory ([13]; Preemergence, Rate 62 g/ha): 0
- Plant response rating, Morningglory ([13]; Preemergence, Rate 125 g/ha): 0
- Morningglory plant response rating [13, 20]: 0
- Morningglory plant response rating [13, 21]: 0
- Morningglory plant response rating [13, 22]: 7
- Morningglory plant response rating [13, 23]: 7
- Nutsedge plant response rating [14, 24]: 0
- Plant response rating, Nutsedge ([14]; Preemergence, Rate 62 g/ha): 0
- Plant response rating, Nutsedge ([14]; Preemergence, Rate 125 g/ha): 0
- Nutsedge plant response rating [14, 20]: 0
- Nutsedge plant response rating [14, 21]: 0
- Nutsedge plant response rating [14, 22]: 0
- Nutsedge plant response rating [14, 23]: 0
- Rape plant response rating [15, 24]: 0
- Plant response rating, Rape ([15]; Preemergence, Rate 62 g/ha): 0
- Plant response rating, Rape ([15]; Preemergence, Rate 125 g/ha): 0
- Rape plant response rating [15, 20]: 0
- Rape plant response rating [15, 21]: 0
- Rape plant response rating [15, 22]: 0
- Rape plant response rating [15, 23]: 0
- Plant response rating, Rice (0 to 10 scale, 0 is no effect, 10 is complete control) [16, 25]: 0
- Rice plant response rating (0 to 10 scale, 0 is no effect, 10 is complete control) [16, 26]: 0
- Rice plant response rating [16, 27]: 0
- Rice plant response rating [16, 28]: 0
